# Source: the supplement of paper PMC10733146
# Key:
# Assay in all cases: viability relative to DMSO control (fraction); higher = less drug effect (more viable cells)
# Conditions in all cases: 48 h
# [1] = test system: primary AML patient cells (S002)
# Method in brief: (§1)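 Using 384-well plates with compounds already plated at five concentrations, one well per concentration, 4 × 10^4 primary mononuclear tumour cells were added per well. Cells were Ficoll-isolated from blood or bone marrow or came from processed lymph node, fresh or cryopreserved. They were kept for 48 h at 37 °C and 5% CO2 in RPMI-1640 supplemented with penicillin/streptomycin, L-glutamine and human serum, and viability was read as CellTiter-Glo luminescence relative to the median of 16 inner DMSO wells.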
# [2] = test system: primary AML patient cells (S006)
# Method in brief: as §1
# [3] = test system: primary AML patient cells (S011)
# Method in brief: as §1
# [4] = test system: primary AML patient cells (S012)
# Method in brief: as §1
# [5] = test system: primary AML patient cells (S017)
# Method in brief: as §1
# [6] = test system: primary AML patient cells (S019)
# Method in brief: as §1
# [7] = test system: primary AML patient cells (S021)
# Method in brief: as §1
# [8] = test system: primary AML patient cells (S025)
# Method in brief: as §1
# [9] = test system: primary AML patient cells (S037)
# Method in brief: as §1
# [10] = test system: primary AML patient cells (S081)
# Method in brief: as §1
# [11] = test system: primary AML patient cells (S085)
# Method in brief: as §1
# [12] = test system: primary AML patient cells (S089)
# Method in brief: as §1
# [13] = test system: primary AML patient cells (S091)
# Method in brief: as §1
# [14] = test system: primary CLL patient cells (S043)
# Method in brief: as §1
smiles,measurement,setting,value
Nc1nc(=S)c2[nH]cnc2[nH]1 [Thioguanin],viability,[1]; 0.024 µM,1.1
same,viability,[1]; 0.12 µM,1.09
same,viability,[1]; 0.6 µM,0.949
same,viability,[1]; 3 µM,0.66
same,viability,[1]; 15 µM,0.446
same,viability,[2]; 0.024 µM,1.07
same,viability,[2]; 0.12 µM,0.996
same,viability,[2]; 0.6 µM,0.57
same,viability,[2]; 3 µM,0.202
same,viability,[2]; 15 µM,0.0984
same,viability,[3]; 0.024 µM,1.02
same,viability,[3]; 0.12 µM,0.977
same,viability,[3]; 0.6 µM,0.658
same,viability,[3]; 3 µM,0.339
same,viability,[3]; 15 µM,0.239
same,viability,[4]; 0.024 µM,0.99
same,viability,[4]; 0.12 µM,1
same,viability,[4]; 0.6 µM,0.946
same,viability,[4]; 3 µM,0.751
same,viability,[4]; 15 µM,0.513
same,viability,[5]; 0.024 µM,0.97
same,viability,[5]; 0.12 µM,1.05
same,viability,[5]; 0.6 µM,0.785
same,viability,[5]; 3 µM,0.561
same,viability,[5]; 15 µM,0.38
same,viability,[6]; 0.024 µM,1.04
same,viability,[6]; 0.12 µM,1.18
same,viability,[6]; 0.6 µM,0.65
same,viability,[6]; 3 µM,0.497
same,viability,[6]; 15 µM,0.57
same,viability,[7]; 0.024 µM,1.11
same,viability,[7]; 0.12 µM,0.984
same,viability,[7]; 0.6 µM,0.918
same,viability,[7]; 3 µM,0.672
same,viability,[7]; 15 µM,0.435
same,viability,[8]; 0.024 µM,0.945
same,viability,[8]; 0.12 µM,0.751
same,viability,[8]; 0.6 µM,0.615
same,viability,[8]; 3 µM,0.279
same,viability,[8]; 15 µM,0.152
same,viability,[9]; 0.024 µM,1
same,viability,[9]; 0.12 µM,0.937
same,viability,[9]; 0.6 µM,0.701
same,viability,[9]; 3 µM,0.481
same,viability,[9]; 15 µM,0.395
same,viability,[10]; 0.024 µM,1.09
same,viability,[10]; 0.12 µM,0.899
same,viability,[10]; 0.6 µM,0.621
same,viability,[10]; 3 µM,0.465
same,viability,[10]; 15 µM,0.319
same,viability,[11]; 0.024 µM,1.03
same,viability,[11]; 0.12 µM,1
same,viability,[11]; 0.6 µM,0.714
same,viability,[11]; 3 µM,0.402
same,viability,[11]; 15 µM,0.24
same,viability,[12]; 0.024 µM,0.765
same,viability,[12]; 0.12 µM,0.607
same,viability,[12]; 0.6 µM,0.648
same,viability,[12]; 3 µM,0.313
same,viability,[12]; 15 µM,0.0421
same,viability,[13]; 0.024 µM,0.859
same,viability,[13]; 0.12 µM,0.817
same,viability,[13]; 0.6 µM,0.919
same,viability,[13]; 3 µM,0.6
same,viability,[13]; 15 µM,0.254
same,viability,[14]; 0.024 µM,0.884
same,viability,[14]; 0.12 µM,0.798
same,viability,[14]; 0.6 µM,0.685
same,viability,[14]; 3 µM,0.546
same,viability,[14]; 15 µM,0.338
